Measurements as given in ChEMBL document CHEMBL1123684, “Synthesis and biological properties of 9-(trans-4-hydroxy-2-buten-1-yl)adenine and guanine: open-chain analogues of neplanocin A” (1987).
Calls of active or inactive are those of the source. No cut-off for these calls is given here.

Assays:
Human alphaherpesvirus 2 = assay: Antiviral activity against herpes simplex virus 2 (HSV 2); Inactive; assay type: functional, organism-based
L1210 [1] = assay: Percent inhibition of growth of murine leukemia L1210 cell culture at 1 mM was determined.; assay type: functional; conditions: Mus musculus
[2] = test system: Vesicular stomatitis virus; assay: Antiviral activity against vesicular stomatis virus (VSV); Inactive; assay type: functional, organism-based
Human alphaherpesvirus 1 = assay: Antiviral activity against herpes simplex virus-1 (HSV 1); Inactive; assay type: functional, organism-based
L1210 [3] = assay: Apparent inhibition of incorporation of labeled thymidine into DNA in murine leukemia L1210 cell;No inhibition; assay type: functional, cell-based; conditions: Mus musculus

Question: Which Activity (Human alphaherpesvirus 2) does the source give for Nc1nc(O)c2ncn([C@@H]3C=C(CO)[C@@H](O)[C@H]3O)c2n1 here?
Answer: inactive

Question: What about the inhibition at 1000 µM (L1210 [1]) of the same compound?
Answer: 50%

Question: And the Activity [2]?
Answer: inactive

Question: And the Activity (Human alphaherpesvirus 1)?
Answer: inactive

Question: How did the Activity (Human alphaherpesvirus 2) turn out when Nc1ncnc2c1ncn2[C@@H]1C=C(CO)[C@@H](O)[C@H]1O [NEOPLANOCIN A] was run?
Answer: inactive

Question: And the inhibition at 1000 µM (L1210 [1])?
Answer: 50%

Question: What about the Activity [2] of the same compound?
Answer: inactive

Question: And the Activity (Human alphaherpesvirus 1)?
Answer: inactive

Question: With Nc1ccn([C@@H]2O[C@H](CO)[C@@H](O)[C@@H]2O)c(=O)n1 as the compound, how does the Activity (L1210 [3]) read?
Answer: inactive
